US20080089860A1, “Therapeutic compositions and methods useful in treating cancer” (priority 2006, published 2008)

Experiments:
[1] = system: NB4 cells; test: NB4 cell proliferation, MTT assay; assay type: cell-based, human; conditions: 12.5-400 μg/ml
Procedure: The NB4 cell line (Lanotte et al., Blood 77, 1080 (1991)) was a gift from Dr. Dan Lindner of the Cleveland Clinic Foundation. […] and U937 cell lines were purchased from American Type Culture Collection (Rockville, Md.). These human […] cell lines were maintained in RPMI 1640 medium supplemented with 10% fetal calf serum (FCS). For cell proliferation assays, cells were cultured at 37° C. in 10% FCS medium containing various amounts of sodium stibogluconate for 6 days. The cell numbers in the cultures were determined by an MTT assay as described previously in Mosmann, J. Immunol. Methods 65, 55 (1983).

[2] = system: Renca tumors; test: Renca tumors in Balb/c mice; assay type: in vivo; conditions: end of treatment
Procedure: Balb/c and athymic nude Balb/c mice (10 weeks old, female, Taconic Farms, Germantown, N.Y.) were inoculated (s.c.) at the flanks with Renca cells (10^6 cells/site). […] Student's t test was used for assessing the significance of tumor volume differences among differential treatment groups. Mouse viability (daily) and body weights (weekly) were also recorded during the study period. At the end of the study, Renca tumors and major internal organs (heart, kidney, liver, lung and spleen) were harvested for histology and immunohistochemistry analysis.

[3] = target: T1, intracellular Flag-PRL-3 (Homo sapiens, UniProt O75365); test: Immunocomplex PTPase assay, Flag-PRL-3 NIH3T3 transfectants; assay type: cell-based; conditions: cells treated 5 min
T1 construct: expressed in transfected cells; host or cells: NIH3T3 (pBabepuro, puromycin-selected)
T1 sequence (O75365 whole entry): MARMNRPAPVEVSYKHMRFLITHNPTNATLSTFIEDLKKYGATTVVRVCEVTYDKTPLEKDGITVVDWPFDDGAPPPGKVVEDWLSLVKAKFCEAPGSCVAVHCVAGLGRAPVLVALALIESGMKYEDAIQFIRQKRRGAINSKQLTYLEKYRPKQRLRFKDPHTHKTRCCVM
Procedure: (§1) Immunocomplex PTPase assays were performed to assess the effects of sodium stibogluconate on intracellular PTPases. Cells were untreated or treated with sodium stibogluconate for 5 minutes, washed with fresh medium and then lysed in cold lysis buffer (50 mM Tris, pH 7.4; 150 mM NaCl; 1% NP40; 2 mM PMSF; 20 μg/ml of Aprotinin). The lysates were incubated with an anti-Flag antibody in immunoprecipitation assays. The immunocomplexes were collected with protein G sepharose beads (Pharmacia) and washed in cold lysis buffer for 4 times. […] C. for 18 hrs. 100 µL of malachite green solution (UBI) was added to each reaction prior to measurement of OD660 to quantify the amounts of free phosphate cleaved by the PTPases from the peptide substrate (Pathak et al., J. Imumol. 167, 3391 (2001)). The remaining 10% contents of individual samples were analyzed by SDS-PAGE/Western blotting to quantify the relative amounts of the phosphatase proteins. […]
(§2) The effects of sodium stibogluconate on intracellular PTPases were assessed using NIH3T3 or WM9 transfectants. […]

[4] = system: C42 cells; test: C42 prostate cancer cell growth; assay type: cell-based, human
Procedure: For cell proliferation assays, cells were grown in 10% FCS culture medium containing various amounts of IFNs and/or sodium stibogluconate in 96 well plates and cultured at 37° C. for 3 or 6 days as indicated. The numbers of viable cells in proliferation assays were determined by MTT assays as described in Phatak et al., J. Immunol. 167, 3391 (2001).

[5] = system: NB4 cells; test: NB4 differentiation (NBT reduction, CD11b); assay type: cell-based, human; conditions: 6 days with drug (10 or 100 μg/ml), washed, 6 days without
Procedure: Differentiation of AML cell lines was assessed by their ability to produce superoxide as measured by reduction of NBT to formazan and by analysis of expression of CD11b surface marker by flow cytometry. For NBT reduction, each cell suspension was mixed with an equal volume of solution containing 1 mg/ml of NBT (Sigma) and 2.5 µg/ml of TPA for 30 minutes at 37° C. After incubation, cells containing the purple formazan deposits and cells devoid of NBT-reducing activity (white cells) in each sample were determined by counting 200 cells under microscope. Data is expressed as a percentage based on the following ratio: purple cells/purple+white cells. For analysis of cell surface antigens, cells were exposed to phycoerythrin (PE)-conjugated murine anti-human CD11b (DAKO Corp., Carpinteria, Calif.). Analysis of fluorescence was performed on a FACScan flow cytometer (Beckton Dickinson, Mountain View, Calif.).

[6] = system: TF-1 cells; test: TF-1 cell proliferation assay; assay type: cell-based, human
Procedure: (§3) The murine hematopoietic cell line Baf3 was maintained in RPMI 1640 medium supplemented with 10% fetal calf serum (FCS) and murine IL-3 (20 units/ml) as described previously in Damen et al., J. Biol. Chem. 270, 23402 (1995). Human myeloid cell line TF-1 was maintained in RPMI 1640 supplemented with 10% FCS and 40 ng/ml of recombinant human GM-CSF as described previously in Thomassen et al., Clin. Immunol. 95, 85 (2000). For cell proliferation assays, cells were washed in 10% FCS medium twice, resuspended in 10% FCS medium, incubated at 37° C. for 16 hours, and then cultured at 37° C. in 10% FCS medium containing various amounts of cytokines, sodium stibogluconate, or potassium antimonyl tartrate for 3-6 days as indicated. The cell numbers in proliferation assays were determined by an MTT assay or by microscopic cell counting as indicated.

[7] = system: DU145R cells; test: DU145R cell growth, MTT assay; assay type: cell-based, human; conditions: day 6 culture
Procedure: DU145 cells were cultured in the presence of sodium stibogluconate (100 µg/ml) in 48 well plates for 3 weeks. Cells from a well containing a single colony were transferred to flasks, cultured in sodium stibogluconate-free medium for 3 weeks and used as DU145R cells for further characterization. Growth of DU145R cells in the absence or presence of sodium stibogluconate in day 6 culture was determined by MTT assays. cDNAs of the coding region of PRLs were derived by RT-PCR from DU145 and DU145R cells and sequenced using primers described below.

[8] = cited from earlier work
[9] = system: Baf3 cells; test: Baf3 cell proliferation assay; assay type: cell-based, murine
Procedure: as §3

[10] = target: T2, intracellular Flag-PRL-1 (Homo sapiens, UniProt Q93096); test: Immunocomplex PTPase assay, Flag-PRL-1 NIH3T3 transfectants; assay type: cell-based; conditions: cells treated 5 min
T2 construct: expressed in transfected cells
T2 sequence (Q93096 whole entry): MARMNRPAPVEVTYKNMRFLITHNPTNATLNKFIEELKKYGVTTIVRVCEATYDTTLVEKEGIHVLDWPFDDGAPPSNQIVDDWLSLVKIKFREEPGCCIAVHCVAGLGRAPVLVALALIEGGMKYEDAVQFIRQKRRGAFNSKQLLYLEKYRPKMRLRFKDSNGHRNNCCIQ
Procedure: as §1, §2

O.O.O.O.O.O.O.O.O.O=C([O-])[C@@H]1[O][Sb]2([O-])([O][Sb]34([OH])[O][C@H]([C@H](O)CO)[C@H]([O]3)[C@H](C(=O)[O-])[O]4)[O][C@H]([C@H](O)CO)[C@@H]1[O]2.[Na+].[Na+].[Na+] [sodium stibogluconate]
proliferation of NB4 cells [1]: markedly inhibited
tolerability of treatment [2]: tolerated well
PTPase activity of immunocomplexes from treated Flag-PRL-3 transfectants [3]: lack of PTPase activity
response of C42 prostate cancer cell line [4]: highly resistant
reversal of NB4 differentiation after drug removal [5]: not reversed
GM-CSF-induced proliferation of TF-1 cells ([6]; 50 μg/ml, GM-CSF 5-40 ng/ml): augmented
effect on GM-CSF-induced cell growth ([6]; low doses 12.5-50 μg/ml): no negative effect
growth of DU145R clone in comparison to parental DU145 [7]: growth resistance
clinical tolerability at therapeutic dosages ([8]; human, in vivo): well tolerated
serum levels ([8]; standard dosage 10-20 mg/kg/day): ≥ 10000 ng/mL
IL-3-induced Baf3 growth ([9]; 1,000 μg/ml): suppressed
cell proliferation and viability in the absence of IL-3 ([9]; day 3 culture): failed to support cell proliferation or maintain cell viability
PTPase activity of immunocomplexes from treated Flag-PRL-1 transfectants [10]: little PTPase activities
